Experimental data from ChEMBL document CHEMBL1138437, “Synthesis and evaluation of novel neamine derivatives effectively targeting to RNA” (Bioorg Med Chem Lett, 2009).
Converted amounts (≈) assume the structure as drawn.

The compounds below were run on Escherichia coli (assay: Antibacterial activity against Escherichia coli ATCC 25922 after 18 hrs). Conditions: ATCC 25922, 18 h.
Format: functional

MIC	Compound
100 µM (≈ 36.4 µg/mL)	NCCN[C@H]1[C@@H](O)[C@H](N)C[C@H](N)[C@@H]1O[C@H]1O[C@H](CN)[C@@H](O)[C@H](O)[C@H]1N
100 µM (≈ 52.1 µg/mL)	N=C(N)NCCC[C@H](N)C(=O)NCCN[C@H]1[C@@H](O)[C@H](N)C[C@H](N)[C@@H]1O[C@H]1O[C@H](CN)[C@@H](O)[C@H](O)[C@H]1N
50 µM (≈ 24.6 µg/mL)	NCCCC[C@H](N)C(=O)NCCN[C@H]1[C@@H](O)[C@H](N)C[C@H](N)[C@@H]1O[C@H]1O[C@H](CN)[C@@H](O)[C@H](O)[C@H]1N

Compound	MIC
NC[C@H]1O[C@H](O[C@H]2[C@H](O)[C@@H](O)[C@H](N)C[C@@H]2N)[C@H](N)[C@@H](O)[C@@H]1O [NEAMINE]	50 µM (≈ 16.1 µg/mL)

These compounds were tested on Pseudomonas aeruginosa (assay: Antibacterial activity against Pseudomonas aeruginosa ATCC 27853 after 18 hrs). Conditions: ATCC 27853, 18 h.
Format: functional

MIC	Compound
50 µM (≈ 18.2 µg/mL)	NCCN[C@H]1[C@@H](O)[C@H](N)C[C@H](N)[C@@H]1O[C@H]1O[C@H](CN)[C@@H](O)[C@H](O)[C@H]1N
> 100 µM	N=C(N)NCCC[C@H](N)C(=O)NCCN[C@H]1[C@@H](O)[C@H](N)C[C@H](N)[C@@H]1O[C@H]1O[C@H](CN)[C@@H](O)[C@H](O)[C@H]1N
> 100 µM	NCCCC[C@H](N)C(=O)NCCN[C@H]1[C@@H](O)[C@H](N)C[C@H](N)[C@@H]1O[C@H]1O[C@H](CN)[C@@H](O)[C@H](O)[C@H]1N

Compound	MIC
NC[C@H]1O[C@H](O[C@H]2[C@H](O)[C@@H](O)[C@H](N)C[C@@H]2N)[C@H](N)[C@@H](O)[C@@H]1O [NEAMINE]	> 100 µM

These compounds were tested on Staphylococcus aureus (assay: Antibacterial activity against Staphylococcus aureus ATCC 29213 after 18 hrs). Conditions: ATCC 29213, 18 h.
Format: functional

MIC	Compound
> 100 µM	NCCN[C@H]1[C@@H](O)[C@H](N)C[C@H](N)[C@@H]1O[C@H]1O[C@H](CN)[C@@H](O)[C@H](O)[C@H]1N
> 100 µM	N=C(N)NCCC[C@H](N)C(=O)NCCN[C@H]1[C@@H](O)[C@H](N)C[C@H](N)[C@@H]1O[C@H]1O[C@H](CN)[C@@H](O)[C@H](O)[C@H]1N
25 µM (≈ 12.3 µg/mL)	NCCCC[C@H](N)C(=O)NCCN[C@H]1[C@@H](O)[C@H](N)C[C@H](N)[C@@H]1O[C@H]1O[C@H](CN)[C@@H](O)[C@H](O)[C@H]1N

Compound	MIC
NC[C@H]1O[C@H](O[C@H]2[C@H](O)[C@@H](O)[C@H](N)C[C@@H]2N)[C@H](N)[C@@H](O)[C@@H]1O [NEAMINE]	50 µM (≈ 16.1 µg/mL)

These compounds were tested against Nucleic Acid (assay: Binding affinity to A site of biotinylated 16S rRNA (unknown origin) by surface plasmon resonance analysis). Conditions: not given.
Format: nucleic-acid assay

Kd	Compound
7 µM	NCCN[C@H]1[C@@H](O)[C@H](N)C[C@H](N)[C@@H]1O[C@H]1O[C@H](CN)[C@@H](O)[C@H](O)[C@H]1N
2 µM	N=C(N)NCCC[C@H](N)C(=O)NCCN[C@H]1[C@@H](O)[C@H](N)C[C@H](N)[C@@H]1O[C@H]1O[C@H](CN)[C@@H](O)[C@H](O)[C@H]1N
1 µM	NCCCC[C@H](N)C(=O)NCCN[C@H]1[C@@H](O)[C@H](N)C[C@H](N)[C@@H]1O[C@H]1O[C@H](CN)[C@@H](O)[C@H](O)[C@H]1N

Compound	Kd
NC[C@H]1O[C@H](O[C@H]2[C@H](O)[C@@H](O)[C@H](N)C[C@@H]2N)[C@H](N)[C@@H](O)[C@@H]1O [NEAMINE]	19 µM

The compounds below were run against Nucleic Acid (assay: Binding affinity to biotinylated HIV1 trans-activation response element RNA by surface plasmon resonance analysis). Conditions: not given.
Format: nucleic-acid assay, Human immunodeficiency virus 1

Kd	Compound
14 µM	NCCN[C@H]1[C@@H](O)[C@H](N)C[C@H](N)[C@@H]1O[C@H]1O[C@H](CN)[C@@H](O)[C@H](O)[C@H]1N
3 µM	N=C(N)NCCC[C@H](N)C(=O)NCCN[C@H]1[C@@H](O)[C@H](N)C[C@H](N)[C@@H]1O[C@H]1O[C@H](CN)[C@@H](O)[C@H](O)[C@H]1N
2 µM	NCCCC[C@H](N)C(=O)NCCN[C@H]1[C@@H](O)[C@H](N)C[C@H](N)[C@@H]1O[C@H]1O[C@H](CN)[C@@H](O)[C@H](O)[C@H]1N

Compound	Kd
NC[C@H]1O[C@H](O[C@H]2[C@H](O)[C@@H](O)[C@H](N)C[C@@H]2N)[C@H](N)[C@@H](O)[C@@H]1O [NEAMINE]	24 µM
